Data taken from ChEMBL document CHEMBL1667758, “Synthesis and biological activity of novel inhibitors of topoisomerase I: 2-aryl-substituted 2-bis-1H-benzimidazoles” (Eur J Med Chem, 2011).
Active and inactive are the calls of the source. The rule behind the calls is not given here.

Experiments:
MCF7 [1] = test: cells; conditions: Homo sapiens, MCF7, 72 h
Description: Cytotoxicity against human MCF7 cells after 72 hrs by MTT assay

[2] = Lipophilicity, log P of the compound; assay type: physicochemical; conditions: octanol/water
[3] = Cytotoxicity against human U87 cells after 72 hrs by MTT assay; assay type: functional, cell-based, U-87MG ATCC; conditions: U-87 MG
HeLa [4] = test: cells; conditions: Homo sapiens, 72 h
Description: Cytotoxicity against human HeLa cells after 72 hrs by MTT assay

Calf thymus DNA [5] = test: Binding affinity to calf thymus DNA assessed as hypochromicity at DNA/drug ratio 4 after 15 mins by UV-vis spectrophotometer analysis; assay type: nucleic-acid assay; conditions: Bos taurus
Calf thymus DNA [6] = test: Binding affinity to calf thymus DNA after 5 mins by fluorescence assay; assay type: nucleic-acid assay; conditions: Bos taurus
HeLa [7] = test: Ratio of compound IC50 to Hoechst 33342 IC50 for human HeLa cells; assay type: functional
Homo sapiens [8] = organism: Homo sapiens; test: Inhibition of human purified topoisomerase 1b-mediated relaxation of supercoiled pBS (SK+) DNA at 25 uM after 30 mins by agarose gel electrophoresis
MCF7 [9] = test: Ratio of compound IC50 to Hoechst 33342 IC50 for human MCF7 cells; assay type: functional
HeLa [10] = test: Ratio of compound IC50 to camptothecin IC50 for human HeLa cells; assay type: functional
[11] = Ratio of compound IC50 to Hoechst 33342 IC50 for human U87 cells; assay type: functional, U-87MG ATCC
Homo sapiens [12] = organism: Homo sapiens; test: Inhibition of human purified topoisomerase 1b-mediated relaxation of supercoiled pBS (SK+) DNA at 75 uM after 30 mins by agarose gel electrophoresis
Homo sapiens [13] = organism: Homo sapiens; test: Inhibition of human purified topoisomerase 1b-mediated relaxation of supercoiled pBS (SK+) DNA at 50 uM after 30 mins by agarose gel electrophoresis
Homo sapiens [14] = organism: Homo sapiens; test: Inhibition of human purified topoisomerase 1b-mediated relaxation of supercoiled pBS (SK+) DNA at 10 uM after 30 mins by agarose gel electrophoresis

CCOc1ccc(-c2nc3cc(-c4nc5cc(N6CCN(C)CC6)ccc5[nH]4)ccc3[nH]2)cc1
IC50 (MCF7 [1]): 500 nM | logP [2]: 3.95 | IC50 [3]: 4200 nM | IC50 (HeLa [4]): 300 nM | Activity (Calf thymus DNA [5]): 38% | Activity (Calf thymus DNA [6]): Active | Ratio IC50 (HeLa [7]): 2

CN1CCN(c2ccc3nc(-c4ccc5nc(-c6ccc(Cl)cc6Cl)[nH]c5c4)[nH]c3c2)CC1
IC50 (MCF7 [1]): 1300 nM | logP [2]: 4.85 | IC50 [3]: 1500 nM | IC50 (HeLa [4]): 600 nM | Activity (Homo sapiens [8]): Active | Ratio IC50 (MCF7 [9]): 2.6 | Activity (Calf thymus DNA [5]): 28% | Activity (Calf thymus DNA [6]): Active | Ratio IC50 (HeLa [10]): 3 | Ratio IC50 [11]: 2.8

COc1cc(-c2nc3ccc(-c4nc5ccc(N6CCN(C)CC6)cc5[nH]4)cc3[nH]2)cc(OC)c1OC
IC50 (MCF7 [1]): 16800 nM | logP [2]: 3.36 | inhibition (Homo sapiens [12]): 90% | IC50 [3]: > 100000 nM | IC50 (HeLa [4]): 29300 nM | inhibition (Homo sapiens [13]): 90% | Activity (Calf thymus DNA [5]): 27%

CN1CCN(c2ccc3nc(-c4ccc5nc(-c6ccc(F)cc6F)[nH]c5c4)[nH]c3c2)CC1
IC50 (MCF7 [1]): 5500 nM | logP [2]: 4.05 | IC50 [3]: 5500 nM | IC50 (HeLa [4]): 1500 nM | Activity (Homo sapiens [8]): Active | Activity (Calf thymus DNA [5]): -20% | Activity (Calf thymus DNA [6]): Active

COc1ccc(-c2nc3cc(-c4nc5cc(N6CCN(C)CC6)ccc5[nH]4)ccc3[nH]2)cc1OC
IC50 (MCF7 [1]): 5300 nM | logP [2]: 3.48 | inhibition (Homo sapiens [12]): 90% | IC50 [3]: > 100000 nM | IC50 (HeLa [4]): 3400 nM | inhibition (Homo sapiens [13]): 90% | Activity (Calf thymus DNA [5]): 1%

CC[C@@]1(O)C(=O)OCc2c1cc1n(c2=O)Cc2cc3ccccc3nc2-1 [CAMPTOTHECIN]
IC50 (MCF7 [1]): 650 nM | IC50 [3]: 500 nM | IC50 (HeLa [4]): 1500 nM | inhibition (Homo sapiens [14]): 80%
